A value given as a limit tells only on which side of the number the result lay.

Assay [1] has as its target Cathepsin Z (Homo sapiens) (UniProt Q9UBR2). Put plainly: Inhibition of human recombinant cathepsin X.
Assay [2] shares this target. Put plainly: Inhibition of human recombinant cathepsin X. The source holds these as a separate data set.

Cathepsin Z (Homo sapiens), sequence (Q9UBR2 whole entry, looked up): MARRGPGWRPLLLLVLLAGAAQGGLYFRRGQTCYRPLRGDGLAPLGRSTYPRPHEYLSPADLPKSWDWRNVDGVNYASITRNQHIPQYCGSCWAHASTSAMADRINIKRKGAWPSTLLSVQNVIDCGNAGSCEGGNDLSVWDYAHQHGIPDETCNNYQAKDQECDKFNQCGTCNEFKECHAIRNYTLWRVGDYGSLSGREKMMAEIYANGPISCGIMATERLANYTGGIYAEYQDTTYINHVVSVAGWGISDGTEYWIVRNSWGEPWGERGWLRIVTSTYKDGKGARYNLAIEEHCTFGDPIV

A word on the IC50: it is the concentration that gives 50% inhibition. Regarding `Cc1cccc(O[C@H]2CCN3C[C@H]2OC3=O)c1C` (relative stereo) [cis-4-(2,3-dimethylphenoxy)-6-oxa-1-aza-bicyclo[3.2.1]octan-7-one], the IC50 in assay [1] was found to be 197 nM.

With `Cc1cccc(O[C@H]2CCN3C[C@@H]2OC3=O)c1C` (racemic) [rac-trans4-(2,3-dimethylphenoxy)-6-oxa-1-aza-bicyclo[3.2.1]octan-7-one], the IC50 in assay [1] was 553 nM.

On to `CC(C)CO[C@H]1CCN2C[C@H]1OC2=O` [(1R,2S)-2-isobutoxy-7-oxa-5-aza-bicyclo[3.2.1]octan-6-one], for which the IC50 in assay [2] worked out at 1100 nM.

Take `S=C1O[C@@H]2CN1CC[C@@H]2Oc1ccccc1` [(1R,2S)-2-phenoxy-7-oxa-5-aza-bicyclo[3.2.1]octane-6-thione]: in assay [2], the half-inhibitory concentration (IC50) worked out at 7150 nM.

As for `O=C1O[C@H]2CN1CC[C@@H]2Br` [(1S,2S)-2-bromo-7-oxa-5-aza-bicyclo[3.2.1]octan-6-one], the IC50 in assay [1] is above 10000 nM.

For `O=C1O[C@@H]2CN1CC[C@@H]2Oc1ccccc1` [(1R,2S)-2-phenoxy-7-oxa-5-aza-bicyclo[3.2.1]octan-6-one], the IC50 in assay [2] is 326 nM.

Regarding `O=C1O[C@@H]2CN1CC[C@@H]2OCc1ccccc1` [(1R,2S)-2-(benzyloxy)-7-oxa-5-aza-bicyclo[3.2.1]octan-6-one], in assay [2], the IC50 was 547 nM.

(Values after BindingDB's records for doi:10.1016/j.bmcl.2006.12.014 (The Genomics Institute of The Novartis Research Foundation, 2007).)
